From patent US20240277631A1, “SMALL MOLECULE DRUG (ELP-004) TO PREVENT BONE LESIONS CAUSED BY MULTIPLE MYELOMA” (West Virginia University Board of Governors on behalf of …, priority 2023, published 2024)

Tests used:
water solubility = type: physicochemical
Source text: Those persons of ordinary skill in the art will understand that ELP-004 may be solubilized in ethanol and then diluted in sterile saline. These methods include wherein the route of administration may be, for example but not limited to, the intravenous, intramuscular, or subcutaneous routes, or via the oral route of administration.

[1] = test system: osteoclasts differentiated from Murine BMSMCs; assay: matrix resorption (pit formation) on Osteo-Assay surface plates; type: cell-based; conditions: irrespective of conditions, days 7, 14, 21
Protocol: Murine BMSMCs were differentiated to form osteoclasts on Osteo-Assay surface plates. The sizes of pits formed by the resorptive activity of osteoclasts differentiated under the three conditions were analyzed at days 7, 14, and 21. Average pit sizes of 10-30 pits are shown.

[2] = test system: human myeloma cells (U266 cells); assay: bone loss in the animal model of multiple myeloma; type: in vivo; conditions: mice engrafted with human U266 myeloma cells, 60 mg/kg ELP-004 at 72h intervals (summary statement)
Protocol: Shown are cross-sections of distal femur micro-computer tomographic images from mice treated with 60 mg/kg ELP-004 or vehicle control at 72h intervals after the engraftment of human 2×10^6 myeloma cells (U266 cells). Confirmation of engraftment was verified by measuring serum human IgE levels.

[3] = test system: CYP isoforms CYP1A2, CYP2B6, CYP2C8, CYP2C9, CYP2C19, CYP2D6, and CYP3A4; assay: reversible CYP inhibition in human liver microsomes, summary over all isoforms; type: in vitro ADME; conditions: any CYP, concentration range 0.02-25 μM
Protocol: (§1) Depicted in table 2 is cytochrome P450 phenotyping and inhibition by ELP-004. The stability of ELP-004 was tested in the presence of recombinant enzymes CYP1A2, CYP2B6, CYP2C8, CYP2C9, CYP2C19, CYP2D6, and CYP3A4. ELP-004 (1 μM) was incubated with recombinant enzymes and NADPH. The amount of ELP-004 remaining at each timepoint was analyzed by LC-MS/MS. Incubations in control recombinant enzymes were also performed to assess non-enzymatic mediated stability. The intrinsic clearance of ELP-004 was determined. […] A decrease in the formation of the metabolite compared to vehicle control is used to calculate an IC50 value. Metabolite peak area ratio response as a percentage of vehicle control is plotted against the test compound concentration.

CYP2D6 = CYP2D6 (Homo sapiens, UniProt P10635); assay: stability with recombinant CYP2D6; type: in vitro ADME
Sequence of CYP2D6 (P10635 whole entry): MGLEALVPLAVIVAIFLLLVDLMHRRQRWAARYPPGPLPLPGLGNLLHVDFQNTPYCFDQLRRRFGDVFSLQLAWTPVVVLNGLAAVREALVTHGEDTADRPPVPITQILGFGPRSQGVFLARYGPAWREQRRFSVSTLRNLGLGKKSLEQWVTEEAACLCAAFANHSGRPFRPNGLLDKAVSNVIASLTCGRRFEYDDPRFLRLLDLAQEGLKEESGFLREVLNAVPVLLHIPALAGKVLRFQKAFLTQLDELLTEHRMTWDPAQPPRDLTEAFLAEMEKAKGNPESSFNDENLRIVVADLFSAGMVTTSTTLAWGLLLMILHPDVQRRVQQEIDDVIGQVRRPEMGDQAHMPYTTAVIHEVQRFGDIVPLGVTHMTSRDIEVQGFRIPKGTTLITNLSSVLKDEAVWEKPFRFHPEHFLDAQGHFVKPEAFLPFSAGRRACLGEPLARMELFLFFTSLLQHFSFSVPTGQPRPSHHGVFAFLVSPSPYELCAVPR
Protocol: as §1

Murine BMSMCs [4] = assay: cytosolic Ca2+ levels and NFAT nuclear translocation during osteoclastogenesis; type: cell-based; conditions: 100 nM
Murine BMSMCs [5] = assay: TNFα-induced osteoclast fusion (TRAP, multinucleation, marker mRNA); type: cell-based; conditions: RANKL/TNFα
Protocol: (A_C) Murine BMSMCs were grown for up to 21 days in media supplemented with 50 ng/ml m-CSF, […] RANKL and 2 ng/ml TNFα. Each experiment was repeated a minimum of three times. Cells were fixed and stained for Tartrate Resistant Acid Phosphatase (TRAP)_activity at days 1, 7, 14 and 21. In schematic A, the number of TRAP positive osteoclast-like cells (out of 100 cells) were counted for each time point; TRAP intensity was also calculated. In schematic B, at each time point the number of nuclei for each cell was counted and the average number of nuclei per cell for 100 cells is shown. […] The expression patterns of osteoclast markers was unaffected by ELP-004, indicating selective inhibition of specific features of osteoclastogenesis.

CYP3A4 = CYP3A4 (Homo sapiens, UniProt P08684); assay: stability with recombinant CYP3A4; type: in vitro ADME; conditions: recombinant CYP3A4, intrinsic clearance, read-out: Recombinant CYP CLINT
Sequence of CYP3A4 (P08684 whole entry): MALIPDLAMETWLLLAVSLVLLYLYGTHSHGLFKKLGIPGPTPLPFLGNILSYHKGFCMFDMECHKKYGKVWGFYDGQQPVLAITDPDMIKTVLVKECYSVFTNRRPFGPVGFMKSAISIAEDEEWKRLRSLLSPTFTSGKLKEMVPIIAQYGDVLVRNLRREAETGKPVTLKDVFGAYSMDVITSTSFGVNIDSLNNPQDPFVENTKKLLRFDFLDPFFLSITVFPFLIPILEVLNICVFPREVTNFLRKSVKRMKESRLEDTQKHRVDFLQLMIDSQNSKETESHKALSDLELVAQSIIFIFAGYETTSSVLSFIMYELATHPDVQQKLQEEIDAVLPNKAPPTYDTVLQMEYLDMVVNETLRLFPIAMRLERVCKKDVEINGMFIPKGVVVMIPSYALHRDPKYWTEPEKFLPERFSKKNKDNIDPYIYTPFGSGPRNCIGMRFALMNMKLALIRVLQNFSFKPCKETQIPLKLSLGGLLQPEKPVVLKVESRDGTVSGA
Protocol: as §1

dopamine transporter = dopamine transporter (Homo sapiens, UniProt Q01959); assay: dopamine transport
Sequence of dopamine transporter (Q01959 whole entry): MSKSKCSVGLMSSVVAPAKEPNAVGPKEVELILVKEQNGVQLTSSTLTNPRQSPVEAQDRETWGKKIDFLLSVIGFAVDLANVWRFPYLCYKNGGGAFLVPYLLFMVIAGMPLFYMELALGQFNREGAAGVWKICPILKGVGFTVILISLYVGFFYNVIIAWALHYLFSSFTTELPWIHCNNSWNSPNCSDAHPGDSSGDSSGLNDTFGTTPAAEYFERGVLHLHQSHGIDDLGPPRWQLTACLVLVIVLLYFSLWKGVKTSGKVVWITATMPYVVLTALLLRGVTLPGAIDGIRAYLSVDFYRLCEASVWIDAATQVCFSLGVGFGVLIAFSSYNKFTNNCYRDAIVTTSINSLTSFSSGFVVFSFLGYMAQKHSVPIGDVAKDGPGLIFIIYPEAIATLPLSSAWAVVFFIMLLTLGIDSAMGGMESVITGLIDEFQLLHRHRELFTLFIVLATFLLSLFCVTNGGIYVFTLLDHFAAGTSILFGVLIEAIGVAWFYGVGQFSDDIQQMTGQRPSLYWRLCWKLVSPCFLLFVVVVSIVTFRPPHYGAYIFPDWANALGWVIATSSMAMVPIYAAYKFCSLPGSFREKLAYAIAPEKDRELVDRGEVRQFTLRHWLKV
Source text: (§2) ELP-004 has been evaluated for its ability to cross the blood brain barrier. […] Other medications, such as but not limited to bupropion, are known to cause problems due to dopamine transporter binding.

rats = assay: 1x escalating oral toxicity in rats (IITRI); type: in vivo, rat
CYP enzymes = assay: induction of CYP enzymes; type: in vitro ADME
U266 cells = assay: U266 cell viability (Axenin V method) and cell counts; type: cell-based, human
Protocol: The U266 cells were incubated in the presence of the noted concentrations of ELP-004, and the viability of the cells was determined at the indicated times using the Axenin V method.
Initial treatment with N-methyl dichloropropionaniline (N-MeDCPA, ELP-004) was examined. The N-MeDCPA was designed and synthesized and tested in laboratory experiments. A treatment scheme with plated cells was devised using N-MeDCPA as compared to a DMSO vehicle only, along with 100 μM and 200 μM dosages on U266 cell samples. U266 is a B lymphocyte isolated from the peripheral blood of a patient with myeloma and is commonly used in immune system disorder research and immunology research. The cells were allowed to incubate then counted under a 10× lens.
As may be seen in FIG. 1, the growth curve of cell samples as treated with the varying concentrations versus a DMSO vehicle can be observed. The number of cells per milliliter was calculated after examination and counting under the lens.
The effect of ELP-004 (i.e. N-MeDCPA) on […] (a myeloma cell line) proliferation is described above.

[6] = ability to cross the blood brain barrier
Source text: as §2

With `CCC(=O)N(C)c1ccc(Cl)c(Cl)c1` [ELP-004, N-(3,4-dichlorophenyl)-N-methylpropanamide] the water solubility (water solubility) was “not water soluble”, the “matrix resorption activity of osteoclasts” value [1] was “No resorption was observed” and the “development of bone lesions” value [2] was “strongly suppressed”. The “reversible inhibition of CYP isoforms” value [3] was “did not inhibit”, the microsomal CLint at 1 μM (CYP2D6; human, recombinant CYP2D6, intrinsic clearance, read-out: Recombinant CYP CLINT) was < 0.154 µL/min/mg and the “metabolism by recombinant enzyme” value (CYP2D6; recombinant CYP2D6) was “not metabolized”. For the same molecule, the “ELP-004 t1/2” value (CYP2D6; recombinant CYP2D6, 1 μM, NADPH) was >3 h, the NFAT nuclear translocation (Murine BMSMCs [4]; LTB4-induced changes) was “significantly inhibited” and the “cytosolic Ca2+ levels” value (Murine BMSMCs [4]; LTB4-induced changes) was “significantly inhibited”. The NFAT nuclear translocation (Murine BMSMCs [4]; RANKL-induced osteoclastogenesis) was “had no effect”, the NFAT nuclear translocation (Murine BMSMCs [4]; TNFα-induced changes) was “significantly inhibited” and the “cytosolic Ca2+ levels” value (Murine BMSMCs [4]; TNFα-induced changes) was “significantly inhibited”. For the same molecule, the TRAP activity (Murine BMSMCs [5]) was “completed abrogated”, the “expression patterns of osteoclast markers” value (Murine BMSMCs [5]) was “unaffected” and the multinucleation (Murine BMSMCs [5]) was “severely attenuated”. For the same molecule, the microsomal CLint at 1 μM (CYP3A4) was 0.193 µL/min/mg, the “problems with dopamine transport” value (dopamine transporter) was “does not cause problems with dopamine transport” and the “oral LD50” value (rats) was > 2.5 g/kg body weight. For the same molecule, the “effect on induction of CYP enzymes” value (CYP enzymes) was “no deleterious effect”, the IC50 (U266 cells; Homo sapiens, U-266, U266 cells, viability by Axenin V method, calculated using two methods) was 154 µM and the myeloma cell proliferation (U266 cells; U66 (U266) myeloma cell line) was “inhibits myeloma cell proliferation”. The “crossing of the blood brain barrier” value [6] was “does not cross the blood brain barrier”.
